# Earlier results as cited in the PKSmart pharmacokinetics tables (Seal et al. 2025).
# How the values were obtained:
# [1] = not given per row; by the article one of three: Lombardo et al. 2013, J Clin Pharmacol 53:178, doi 10.1177/0091270012440282; 'New Drugs at FDA', novel drug approvals for 2021 and 2022 (the article's reference 43); Yap, Li, Chen 2006, J Mol Graph Model 24:383, doi 10.1016; conditions: human; for clearance / Vd / half-life: in vivo; for fraction unbound: plasma
# [2] = Lombardo, Berellini, Obach 2018, Drug Metab Dispos 46:1466, doi 10.1124/dmd.118.082966; conditions: human; for MRT / Vd / clearance / half-life: in vivo, iv; for fraction unbound: plasma
# [3] = Lombardo et al. 2013, J Clin Pharmacol 53:178, doi 10.1177/0091270012440282; conditions: for Vd / clearance: in vivo, iv; for fraction unbound: plasma
smiles,measurement,setting,value
COCC1=C(C(=O)O)N2C(=O)C(=NC(=O)C(NOC)c3csc(N)n3)[C@H]2SC1 (stereo partly specified),clearance,[1],2.38 mL/min/kg
CC(C)NC[C@@H](O)COc1ccc(COCCOC(C)C)cc1,clearance,[1],3.55 mL/min/kg
OC[C@H]1CC[C@@H](n2cnc3c(O)ncnc32)O1,clearance,[1],15.2 mL/min/kg
CC(C)[C@@H](C)[C@@]1(C)CC[C@]2(C)[C@H]3CC[C@@H]4[C@@]5(COC[C@@]4(C)[C@@H](OC[C@](C)(N)C(C)(C)C)[C@H](n4ncnc4-c4ccncc4)C5)C3=CC[C@@]2(C)C1C(=O)O (stereo partly specified),Vd,[1],10 L/kg
same,half-life,[1],20 h
same,fraction unbound,[1],0.01
CCN(CC)CC#CCOC(=O)[C@](O)(c1ccccc1)C1CCCCC1,clearance,[1],8.1 mL/min/kg
C1=C/COCc2cc(ccc2OCCN2CCCC2)Nc2nccc(n2)-c2cccc(c2)COC/1,Vd,[1],3.82 L/kg
same,clearance,[1],0.58 mL/min/kg
same,half-life,[1],27.7 h
same,fraction unbound,[1],0.01
CN=C1CN(O)C(c2ccccc2)=c2cc(Cl)ccc2=N1,Vd,[1],0.25 L/kg
CC(C)NC(=O)COc1cccc(-c2nc(Nc3ccc4[nH]ncc4c3)c3ccccc3n2)c1,Vd,[1],3.07 L/kg
same,clearance,[1],2.73 mL/min/kg
same,half-life,[1],19 h
CC(C)(C)NC[C@@H](O)COc1nsnc1N1CCOCC1,clearance,[1],8.1 mL/min/kg
CNCc1cc(-c2ccccc2F)n(S(=O)(=O)c2cccnc2)c1,Vd,[1],13 L/kg
same,clearance,[1],22.6 mL/min/kg
same,half-life,[1],6.8 h
same,fraction unbound,[1],0.14
CCC[C@H](C)[C@@]1(CC)C(=O)N=C(S)NC1=O,clearance,[1],3.02 mL/min/kg
CON=C(C(=O)NC1C(=O)N2C(C(=O)[O-])C(=C[N+]34CCC(C(N)=O)(CC3)CC4)CSC12)c1nsc(N)n1 (stereo unspecified),Vd,[1],0.27 L/kg
same,clearance,[1],1.7 mL/min/kg
CCOC(=O)C(Cc1ccc(F)cc1)NC(=O)C(N)Cc1ccc(N(CCCl)CCCl)cc1 (stereo unspecified),Vd,[1],0.58 L/kg
same,clearance,[1],192 mL/min/kg
same,half-life,[1],0.04 h
Cc1ccc(C)c(OCCCC(C)(C)C(=O)O)c1,clearance,[1],1.7 mL/min/kg
CCN1CCCC1CNC(=O)c1c(OC)ccc(Br)c1OC (stereo unspecified),clearance,[1],1.7 mL/min/kg
O=C(O)c1cc(O)c2c(c1)C(=O)c1cccc(O)c1C2=O,clearance,[1],0.38 mL/min/kg
C[C@@H](CCc1ccc(O)cc1)NCCc1ccc(O)c(O)c1,clearance,[1],59 mL/min/kg
CCCCC[C@H](O)CC[C@@H]1C2Cc3cccc(OCC(=O)O)c3C[C@@H]2C[C@@H]1O (stereo partly specified),clearance,[1],7.14 mL/min/kg
CCOc1ncc(C)c2c1[C@H](c1ccc(C#N)cc1OC)C(C(N)=O)C(C)=N2 (stereo partly specified),Vd,[1],0.88 L/kg
same,clearance,[1],6.94 mL/min/kg
same,half-life,[1],2.5 h
same,fraction unbound,[1],0.08
CCCN(CC)C(CC)C(=O)Nc1c(C)cccc1C (stereo unspecified),clearance,[1],15.9 mL/min/kg
Cc1c(C(C)C)c(=O)n(-c2ccccc2)n1C,clearance,[1],11 mL/min/kg
O=C(O)CCC(NC(=O)NC(CCCCNC(=O)c1ccc([18F])nc1)C(=O)O)C(=O)O (stereo unspecified),half-life,[1],3.47 h
O=C(O)C1/C(=C\CO)O[C@H]2CC(=O)N12 (stereo partly specified),clearance,[1],3.6 mL/min/kg
C=C[C@H](N)CCC(=O)O,clearance,[1],0.74 mL/min/kg
COC(=O)C(c1ccccc1)C1CCCCN1C(=O)OC[n+]1cccc(C(=O)NC(CO)C(=O)[O-])c1 (stereo unspecified),Vd,[1],29.3 L/kg
same,clearance,[1],60 mL/min/kg
same,half-life,[1],5.7 h
same,fraction unbound,[1],0.44
OCCN1CCN(CCCN2c3ccccc3Sc3ccc(C(F)(F)F)cc32)CC1,MRT,[2],5 h
same,Vd,[2],2.9 L/kg
same,clearance,[2],9.7 mL/min/kg
same,half-life,[2],12.3 h
same,fraction unbound,[2],0.04
same,Vd,[3]; dog,5.5 L/kg
same,clearance,[3]; dog,15.4 mL/min/kg
NC12CC3CC(CC(C3)C1)C2,MRT,[2],23 h
same,Vd,[2],6.6 L/kg
same,clearance,[2],4.8 mL/min/kg
same,half-life,[2],16 h
same,Vd,[3]; rat,6.4 L/kg
same,clearance,[3]; rat,19 mL/min/kg
same,fraction unbound,[3]; rat,0.52
CCCN1CCCCC1C(=O)Nc1c(C)cccc1C (stereo unspecified),MRT,[2],2.3 h
same,Vd,[2],0.75 L/kg
same,clearance,[2],5.5 mL/min/kg
same,half-life,[2],2.2 h
same,fraction unbound,[2],0.06
same,Vd,[3]; dog,1.42 L/kg
same,clearance,[3]; dog,30 mL/min/kg
C[C@@H]1CN(c2c(F)c(N)c3c(=O)c(C(=O)O)cn(C4CC4)c3c2F)C[C@H](C)N1,MRT,[2],24 h
same,Vd,[2],3.9 L/kg
same,clearance,[2],2.7 mL/min/kg
same,half-life,[2],20 h
same,Vd,[3]; rat,3.5 L/kg
same,clearance,[3]; rat,19.6 mL/min/kg
same,fraction unbound,[3]; rat,0.5
COCC(=O)O[C@]1(CCN(C)CCCc2nc3ccccc3[nH]2)CCc2cc(F)ccc2[C@@H]1C(C)C,MRT,[2],13 h
same,Vd,[2],3.1 L/kg
same,clearance,[2],4 mL/min/kg
same,half-life,[2],13 h
same,fraction unbound,[2],0.005
same,Vd,[3]; dog,9.7 L/kg
same,clearance,[3]; dog,18.4 mL/min/kg
same,clearance,[3]; rat,94 mL/min/kg
CN(C)CCc1c[nH]c2ccc(C[C@H]3COC(=O)N3)cc12,MRT,[2],4.6 h
same,Vd,[2],1.8 L/kg
same,clearance,[2],6.7 mL/min/kg
same,half-life,[2],3.6 h
same,Vd,[3]; rat,3.53 L/kg
same,clearance,[3]; rat,29.4 mL/min/kg
CCn1cc(C(=O)O)c(=O)c2cc(F)c(N3CCNCC3)nc21,MRT,[2],6.2 h
same,Vd,[2],2 L/kg
same,clearance,[2],5.4 mL/min/kg
same,half-life,[2],5.1 h
same,fraction unbound,[2],0.8
same,Vd,[3]; rat,1.8 L/kg
same,clearance,[3]; rat,42.7 mL/min/kg
CCCC(C)C1(CC)C(=O)NC(=O)NC1=O (stereo unspecified),MRT,[2],32 h
same,Vd,[2],0.91 L/kg
same,clearance,[2],0.47 mL/min/kg
same,half-life,[2],22 h
same,fraction unbound,[2],0.39
same,Vd,[3]; dog,1.06 L/kg
same,clearance,[3]; dog,1.3 mL/min/kg
same,Vd,[3]; rat,1.64 L/kg
same,clearance,[3]; rat,8.4 mL/min/kg
same,fraction unbound,[3]; rat,0.5
CN1CCN(C2=Nc3cc(Cl)ccc3Nc3ccccc32)CC1,MRT,[2],11 h
same,Vd,[2],1.6 L/kg
same,half-life,[2],10 h
same,Vd,[3]; rat,8.68 L/kg
Cc1ccsc1C(=CCCN1CCCC(C(=O)O)C1)c1sccc1C (stereo unspecified),MRT,[2],12 h
same,Vd,[2],1.1 L/kg
same,clearance,[2],1.6 mL/min/kg
same,half-life,[2],10 h
same,Vd,[3]; rat,2.05 L/kg
same,clearance,[3]; rat,89 mL/min/kg
CCCCCN(CCCOC)C(=O)C(CCC(=O)O)NC(=O)c1ccc(Cl)c(Cl)c1 (stereo unspecified),MRT,[2],2.4 h
same,Vd,[2],0.21 L/kg
same,clearance,[2],2.35 mL/min/kg
same,half-life,[2],3.2 h
same,Vd,[3]; dog,0.34 L/kg
same,clearance,[3]; dog,30.7 mL/min/kg
same,fraction unbound,[3]; dog,0.021
same,Vd,[3]; rat,0.98 L/kg
same,clearance,[3]; rat,6.01 mL/min/kg
same,fraction unbound,[3]; rat,0.0093
Nc1ccn([C@@H]2O[C@H](CO)[C@@H](O)C2(F)F)c(=O)n1,MRT,[2],0.81 h
same,Vd,[2],1.5 L/kg
same,clearance,[2],32 mL/min/kg
same,half-life,[2],1 h
same,fraction unbound,[2],1
same,Vd,[3]; dog,1.41 L/kg
same,clearance,[3]; dog,10.8 mL/min/kg
same,fraction unbound,[3]; dog,0.765
same,Vd,[3]; monkey,5.5 L/kg
same,clearance,[3]; monkey,177 mL/min/kg
same,Vd,[3]; rat,1 L/kg
same,clearance,[3]; rat,5 mL/min/kg
same,fraction unbound,[3]; rat,0.93
